Each structure is given as a SMILES string. Where a name gives a salt, the structure may show the parent alone.

Here are results for one molecule from US20080242649A1, “New Combination 665” (priority 2007, published 2008).

The target of test [1] is T1, recombinant human α1D receptor (Homo sapiens, UniProt P25100).
T1 construct: expressed in transfected cells; host or cells: HEK293 cells (membranes)
T1 sequence (P25100 1-572): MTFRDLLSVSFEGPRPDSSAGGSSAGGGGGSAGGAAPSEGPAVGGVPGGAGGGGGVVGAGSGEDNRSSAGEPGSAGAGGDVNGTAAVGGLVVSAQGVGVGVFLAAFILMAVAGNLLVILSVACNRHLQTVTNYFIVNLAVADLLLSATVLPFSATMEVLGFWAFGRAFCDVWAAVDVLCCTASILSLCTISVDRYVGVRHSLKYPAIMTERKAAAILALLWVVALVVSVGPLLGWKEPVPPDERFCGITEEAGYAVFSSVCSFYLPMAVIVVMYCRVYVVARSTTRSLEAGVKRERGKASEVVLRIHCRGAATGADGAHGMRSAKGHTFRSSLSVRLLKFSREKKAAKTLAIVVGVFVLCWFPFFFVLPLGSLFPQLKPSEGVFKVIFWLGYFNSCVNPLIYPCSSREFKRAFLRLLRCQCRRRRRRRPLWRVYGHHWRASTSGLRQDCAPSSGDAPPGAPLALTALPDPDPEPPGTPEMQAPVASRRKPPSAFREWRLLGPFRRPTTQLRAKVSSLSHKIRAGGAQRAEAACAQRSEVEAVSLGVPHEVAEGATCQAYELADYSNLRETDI
The test can be described thus: Adrenergic α1D [3H]-prazosin binding, HEK293 membranes. The conditions noted are these: inhibition of [3H]-prazosin binding; read-out: α1 bind pIC50 (converted). The protocol: Membranes were prepared from human embryonic kidney 293 (HEK293) cells expressing recombinant human α1D receptor. These were diluted in Assay Buffer (50 mM HEPES, 1 mM EDTA, 0.1% gelatin, pH 7.4) to provide a final concentration of membranes that gave a clear window between maximum and minimum specific binding.
Assays were performed in U-bottomed 96-well polypropylene plates. 10 μL [^3H]-prazosin (0.3 nM final concentration) and 10 μL of Compound A (10× final concentration) were added to each test well. For each assay plate 8 replicates were obtained for [^3H]-prazosin binding in the presence of 10 μL vehicle (10% (v/v) DMSO in Assay Buffer; defining maximum binding) or 10 μL BMY7378 (10 μM final concentration; defining non-specific binding (NSB)). Membranes were then added to achieve a final volume of 100 μL. […] Five washes with 250 μL wash buffer (50 mM HEPES, 1 mM EDTA, pH 7.4) were performed at 4° C. to remove unbound radioactivity. […] The plates were sealed (TopSeal A) and filter-bound radioactivity was measured with a scintillation counter (TopCount, Packard BioScience) using a 3-minute counting protocol.
(§1) Total specific binding (B0) was determined by subtracting the mean NSB from the mean maximum binding. […]

Test [2] has as its target T2, recombinant human Dopamine Subtype D2s receptors (Homo sapiens, UniProt P14416).
T2 construct: purchased Perkin Elmer
The test can be described thus: Dopamine D2 [3H]-spiperone binding. The conditions noted are these: inhibition of [3H]-spiperone binding; read-out: D2 bind pIC50 (converted). How it is done:
Membranes containing recombinant human Dopamine Subtype D2s receptors were obtained from Perkin Elmer. These were diluted in Assay Buffer (50 mM HEPES, 1 mM EDTA, 120 mM NaCl, 0.1% gelatin, pH 7.4) to provide a final concentration of membranes that gave a clear window between maximum and minimum specific binding.
Assays were performed in U-bottomed 96-well polypropylene plates. 30 PL [^3H]-spiperone (0.16 nM final concentration) and 30 μL of Compound A (10× final concentration) were added to each test well. For each assay plate 8 replicates were obtained for [^3H]-spiperone binding in the presence of 30 PL vehicle (10% (v/v) DMSO in Assay Buffer; defining maximum binding) or 30 μL Haloperidol (10 PM final concentration; defining non-specific binding (NSB)). Membranes were then added to achieve a final volume of 300 μL. […] Five washes with 250 μL wash buffer (50 mM HEPES, 1 mM EDTA, 120 mM NaCl, pH 7.4) were performed at 4° C. to remove unbound radioactivity. […] The plates were sealed (TopSeal A) and filter-bound radioactivity was measured with a scintillation counter (TopCount, Packard BioScience) using a 3-minute counting protocol.
as §1

T2 sequence (P14416 1-414 isoform P14416-2): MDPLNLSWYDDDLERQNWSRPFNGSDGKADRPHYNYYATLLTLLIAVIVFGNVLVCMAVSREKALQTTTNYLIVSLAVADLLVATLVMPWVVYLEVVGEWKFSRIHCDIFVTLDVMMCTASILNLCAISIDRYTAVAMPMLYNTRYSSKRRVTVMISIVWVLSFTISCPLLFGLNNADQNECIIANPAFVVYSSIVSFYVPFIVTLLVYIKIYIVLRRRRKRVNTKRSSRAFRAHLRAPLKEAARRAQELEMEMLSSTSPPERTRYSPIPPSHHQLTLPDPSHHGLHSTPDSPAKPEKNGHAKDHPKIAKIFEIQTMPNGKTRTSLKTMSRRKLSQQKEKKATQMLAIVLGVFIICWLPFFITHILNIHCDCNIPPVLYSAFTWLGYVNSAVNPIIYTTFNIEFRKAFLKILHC

Turning to `CCN(CC)CCN(CCNCCc1ccc(O)c2[nH]c(=O)sc12)C(=O)CCOCCc1cccc2ccccc12` [Compound A, N-[2-(Diethylamino)ethyl]-N-(2-{[2-(4-hydroxy-2-oxo-2,3-dihydro-1,3-benzothiazol-7-yl)ethyl]amino}ethyl)-3-[2-(1-naphthyl)ethoxy]propanamide dihydrobromide], the values for the IC50 in test [1] and in test [2] were 251 nM and 794 nM, respectively.
